Read-outs that look alike come from different tables or passages of the source.
Key:
Test in all cases: Microculture tetrazolium assay
Format in all cases: cell-based
[1] = system: SKOV3; details: Homo sapiens, SK-OV-3, SKOV3
[2] = system: SKVLB; details: for VLB/OV3: IC50 ratio SKVLB/SKOV3; for IC50: SKVLB
[3] = system: T47D; details: Homo sapiens
[4] = system: LOX
[5] = system: HT29; details: Homo sapiens, HT-29, HT29

Row | Compound | IC50 ([1]; read-out: IC50) [µM] | VLB/OV3 [2] | IC50 ([2]; read-out: IC50) [µM] | IC50 ([3]; read-out: IC50) [µM] | IC50 ([4]; read-out: IC50) [µM] | IC50 ([5]; read-out: IC50) [µM] | IC50 [5] [µM] | IC50 [1] [µM] | IC50 [2] [µM] | IC50 [3] [µM] | IC50 [4] [µM]
1 | C[C@@H]1O[C@@H](OC2OC(CC(=O)C3CC3)CC3=C2C(=O)c2cc4ccccc4c(O)c2C3=O)C[C@H](NC(=O)C(F)(F)F)C1O (mixture of isomers) [BCH-2133, (1'S,1S,3R) and (1'S,1R,3S)-cyclopropyl-(6-hydroxy-1-((2',3',6'-trideoxy-3'-trifluoroacetamido-4'-hydroxy-L-arabino-hexopyranose)-5,10-dioxo-3,4,5,12-tetrahydronaphto-[2,3-c]pyran-3-yl)methylene)] | 7.02 | 0.23 | 1.6 | 3.62 | 2.49 | 3.68 | – | – | – | – | –
2 | COC(=O)[C@@H]1CC2=C(C(=O)c3c(cc4ccccc4c3O)C2=O)[C@@H](O)O1 (relative stereo) [BCH-703, Methyl(1,11-dihydroxy-5,12-dioxo-3,4,5,12-tetrahydroanthraceno[2,3-c]pyran-3-yl)formate] | 24.8 | 0.75 | 18.5 | 16.4 | 12.8 | 7.38 | – | – | – | – | –
3 | CC(=O)[C@@H]1CC2=C(C(=O)c3c(cc4ccccc4c3O)C2=O)[C@@H](O)O1 (relative stereo) [BCH-722] | 19.2 | 4.32 | 83 | 12 | 43.7 | 7.11 | – | – | – | – | –
4 | CO[C@H]1S[C@H](CO)CC2=C1C(=O)c1cc3ccccc3c(O)c1C2=O (relative stereo) [BCH-725] | 3.46 | 1.15 | 3.99 | 4.57 | 1.93 | 2.49 | – | – | – | – | –
5 | CC[C@@H]1CC2=C(C(=O)c3cc4ccccc4c(O)c3C2=O)[C@@H](O)O1 (relative stereo) [BCH-1162, (trans)-1,6-Dihydroxy-3-ethyl-1,2,3,4-tetrahydro-(2-oxygen) naphtacene-5,12-dione] | 1.16 | 2.33 | 2.7 | 2.57 | > 100 | 4.17 | – | – | – | – | –
6 | CO[C@H]1S[C@H](C(C)=O)CC2=C1C(=O)c1cc3ccccc3c(O)c1C2=O (relative stereo) [BCH-1164, Trans-3-aceto-1-methoxy-6-hydroxy-1,2,3,4,5,12-hexahydro-2-(sulfur)naphthacene-5,12-dione] | 9.36 | 0.98 | 9.2 | 12.2 | > 100 | – | 6.97 | – | – | – | –
7 | CC[C@@H]1Cc2c(O)c3c(c(O)c2[C@@H](O)O1)C(=O)c1ccccc1C3=O (relative stereo) [BCH-1174, (trans)-6,11-dioxo-3-ethyl-1,5,12-trihydroxy-3,4,5,12-tetrahydroanthraceno-[2,3-c]-pyran] | > 100 | – | > 100 | > 100 | > 100 | > 100 | – | – | – | – | –
8 | CO[C@H]1O[C@H](C(=O)CP(=O)(OC)OC)CC2=C1C(=O)c1cc3ccccc3c(O)c1C2=O (relative stereo) [BCH-1650] | – | 1.12 | – | – | – | – | 0.629 | 0.802 | 0.895 | 2.44 | 0.755
9 | C=COC(=O)NCCCO[C@@H]1O[C@@H](C(C)=O)CC2=C1C(=O)c1cc3ccccc3c(O)c1C2=O (relative stereo) [BCH-2036] | 3.7 | 3.27 | 12.1 | 6.21 | 5.4 | 3.38 | – | – | – | – | –
10 | CC(=O)OCC1(C2CC3=C(C(=O)c4cc5ccccc5c(O)c4C3=O)C(O[C@H]3C[C@H](NC(=O)C(F)(F)F)[C@H](O)[C@H](C)O3)O2)OCCCO1 (single isomer, unassigned) [BCH-747] | 21 | 0.98 | 20.5 | 18.1 | 18.5 | 15.3 | – | – | – | – | –
11 | CCOC(=O)C1CC2=C(CO1)C(=O)c1c(c(OC(C)=O)c3ccccc3c1OC(C)=O)C2=O (stereo not shown) [BCH-655, Ethyl[6,11-diacetoxy-B,12-dioxo-3,4,5,12-tetrahydroanthraceno (2,3-c)pyran-3-yl]formate] | > 100 | – | > 100 | > 100 | > 100 | > 100 | – | – | – | – | –
12 | CCOC(=O)C1CC2=C(CO1)C(=O)c1c(cc3ccccc3c1OC(C)=O)C2=O (stereo not shown) [BCH-656, Ethyl[11-acetoxy-5,12-dioxo-3,4,5,12-tetrahydro-anthraceno[2,3-c]pyran-3-yl]formate] | 76.7 | 1.08 | 82.9 | 65.6 | 68.9 | 86.6 | – | – | – | – | –
13 | CCOC(=O)C1CC2=C(CO1)C(=O)c1cc3ccccc3c(OC(C)=O)c1C2=O (stereo not shown) [BCH-659, Ethyl(6-acetoxy-5,12-dioxo-3,4,5,12-tetrahydroanthraceno[2,3-c]pyran-3-yl)formate] | 4.53 | 0.56 | 2.54 | 3.83 | 4.82 | 2.36 | – | – | – | – | –
14 | COCOCC(=O)C1CC2=C(CO1)C(=O)c1c(c(OC(C)=O)c3ccccc3c1OC(C)=O)C2=O (stereo not shown) [BCH-695, 6,11-diacetoxy-3-(2-methoxymethoxy)aceto-1,2,3,4-tetrahydro-(2-oxygen)naphthacene-5,12-dione] | 30.8 | 0.49 | 15 | 25.2 | 21.5 | 11.4 | – | – | – | – | –
